Measurements: patent US20240067632A1, “WEE1 Degrading Compounds and Uses Thereof” (Bristol-Myers Squibb Company, priority 2022, published 2024)
Like-named read-outs stand apart in the source and are kept apart here.

Tests used:
[1] = target: T1, WEE1 (Homo sapiens, UniProt P30291+Q96SW2); assay: WEE1-ePL degradation assay (LentiX-WEE1-ePL-GSPT1-ND cells, InCELL Hunter luminescence, 4 h); type: cell-based; details: 293T-LentiX WEE1-ePL cells; for DC50: read-out: 293T-LentiX WEE1-ePL Degradation 4 hr (EC50)
T1 construct: C-terminal ePL-tagged (DiscoverX, Fremont, CA) full-length WEE1 expression construct; expressed in transfected cells; host or cells: LentiX-HEK293T (Invitrogen), lentiviral transduction; co-expressing GSPT1-GN (G576N, lacking the first 158 amino acids)
Procedure, shortened: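 LentiX-HEK293T cells stably expressing C-terminally ePL-tagged full-length WEE1 were treated with compounds in a 10-point, 3-fold dilution series starting at 1 uM or 10 uM for 4 h at 37 °C. Remaining WEE1-ePL was detected by InCELL Hunter luminescence, and EC50, Ymin and Ymax came from a four-parameter logistic fit against DMSO control.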

[2] = test system: MKN45 cells; assay: MKN45 cell proliferation assay (Cell-Titer-Glo, 120 h); type: cell-based; details: for EC50: Homo sapiens, MKN-45, 120 h, Cell-Titer-Glo, read-out: MKN45 Cell Prolif. 120 hr (EC50); for MKN45 Cell Prolif. 120 hr (Ymin-Obs): minimal percent of DMSO control observed in the concentrations tested
Procedure, shortened: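 Cells seeded at 400/well onto pre-printed 10-point half-log dilutions (top 1 or 10 uM, 0.1% DMSO final), in triplicate, and grown 120 h at 37 C. Viability by Cell-Titer-Glo luminescence, blank-subtracted and normalised to DMSO; EC50 from four-parameter logistic fit, with observed minimal % of control recorded as Ymin-obs.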

[3] = lower limit of the fit (0 = luciferase inhibitor, Ymax = DMSO control)
[4] = lower limit of the fit (Ymin=0 luciferase inhibitor, Ymax DMSO control)

Row | Compound | 293T-LentiX WEE1-ePL Degradation 4 hr (Ymin) [1, 3] | DC50 [1] [nM] | EC50 ([2]; growth inhibition) [nM] | MKN45 Cell Prolif. 120 hr (Ymin-Obs) [2] | 293T-LentiX WEE1-ePL Degradation 4 hr (Ymin) [1, 4] | EC50 [2] [nM]
1 | O=C1CCC(N2Cc3cc(O[C@H]4CCN(Cc5cc(F)c6nc(C7CCOCC7)ccc6c5)C4)ccc3C2=O)C(=O)N1 (stereo partly drawn) [3-(5-{[(3S)-1-{[8-fluoro-2-(oxan-4-yl)quinolin-6-yl]methyl}pyrrolidin-3-yl]oxy}-1-oxo-2,3-dihydro-1H-isoindol-2-yl)piperidine-2,6-dione] | 28 | 1.24 | 1.09 | 7.098 |  | 
2 | C[C@@H]1CN(Cc2ccc3nc([C@@H]4CCOC(C)(C)C4)ccc3c2)C[C@H]1Oc1ccc2c(c1)CN(C1CCC(=O)NC1=O)C2=O (stereo partly drawn) [3-(5-{[(3S,4R)-1-({2-[(4R)-2,2-dimethyloxan-4-yl]quinolin-6-yl}methyl)-4-methylpyrrolidin-3-yl]oxy}-1-oxo-2,3-dihydro-1H-isoindol-2-yl) piperidine-2,6-dione] | 27.43 | 4.25 | 4.65 | 9.178 |  | 
3 | C[C@@H]1CN(Cc2ccc3nc([C@H]4CCOC(C)(C)C4)ccc3c2)C[C@H]1Oc1ccc2c(c1)CN(C1CCC(=O)NC1=O)C2=O (stereo partly drawn) [3-(5-{[(3S,4R)-1-({2-[(4S)-2,2-dimethyloxan-4-yl]quinolin-6-yl}methyl)-4-methylpyrrolidin-3-yl]oxy}-1-oxo-2,3-dihydro-1H-isoindol-2-yl)piperidine-2,6-dione] | 24.37 | 1.94 | 0.918 | 8.183 |  | 
4 | C[C@@H]1CN(Cc2cc(F)c3nc([C@H]4CCOC4)ccc3c2)C[C@H]1Oc1ccc2c(c1)CN(C1CCC(=O)NC1=O)C2=O (stereo partly drawn) [3-(5-{[(3S,4R)-1-({8-fluoro-2-[(3R)-oxolan-3-yl]quinolin-6-yl}methyl)-4-methylpyrrolidin-3-yl]oxy}-1-oxo-2,3-dihydro-1H-isoindol-2-yl)piperidine-2,6-dione] |  | 1.56 |  | 8.038 | 30.53 | 1.3
5 | O=C1CCC(N2Cc3cc(O[C@@H]4CN(Cc5ccc6nc(C7CCOCC7)ccc6c5)C[C@H]4C(F)(F)F)ccc3C2=O)C(=O)N1 (stereo partly drawn) [3-(5-{[(3S,4R)-1-{[2-(oxan-4-yl)quinolin-6-yl]methyl}-4-(trifluoromethyl)pyrrolidin-3-yl]oxy}-1-oxo-2,3-dihydro-1H-isoindol-2-yl)piperidine-2,6-dione] |  | 13.1 |  | 28.55 | 35.15 | 26.8
6 | C[C@@H]1CN(Cc2cc(F)c3nc(C4CCOCC4)ccc3c2)C[C@H]1Oc1ccc2c(c1)CN(C1CCC(=O)NC1=O)C2=O (stereo partly drawn) [3-(5-{[(3S,4R)-1-{[8-fluoro-2-(oxan-4-yl)quinolin-6-yl]methyl}-4-methylpyrrolidin-3-yl]oxy}-1-oxo-2,3-dihydro-1H-isoindol-2-yl)piperidine-2,6-dione] |  | 1.13 |  | 7.781 | 27.42 | 1.49
7 | C[C@@H]1CN(Cc2ccc3nc([C@H]4CCOC4)ccc3c2)C[C@H]1Oc1ccc2c(c1)CN(C1CCC(=O)NC1=O)C2=O (stereo partly drawn) [3-(5-{[(3S,4R)-4-methyl-1-({2-[(3R)-oxolan-3-yl]quinolin-6-yl}methyl)pyrrolidin-3-yl]oxy}-1-oxo-2,3-dihydro-1H-isoindol-2-yl)piperidine-2,6-dione] |  | 1.41 |  | 10.26 | 33.41 | 2.32
8 | C[C@@H]1CN(Cc2ccc3nc([C@@H]4CCOC4)ccc3c2)C[C@H]1Oc1ccc2c(c1)CN(C1CCC(=O)NC1=O)C2=O (stereo partly drawn) [3-(5-{[(3S,4R)-4-methyl-1-({2-[(3S)-oxolan-3-yl]quinolin-6-yl}methyl)pyrrolidin-3-yl]oxy}-1-oxo-2,3-dihydro-1H-isoindol-2-yl)piperidine-2,6-dione] |  | 1.95 |  | 10.01 | 33.96 | 3.67
9 | Cc1ccc2cc(CN3C[C@@H](C)[C@H](Oc4ccc5c(c4)CN(C4CCC(=O)NC4=O)C5=O)C3)ccc2n1 (stereo partly drawn) [3-(5-{[(3S,4R)-4-methyl-1-[(2-methylquinolin-6-yl)methyl]pyrrolidin-3-yl]oxy}-1-oxo-2,3-dihydro-1H-isoindol-2-yl)piperidine-2,6-dione] | 33 | 3.1 | 17.5 | 12.51 |  | 
10 | C[C@@H]1CN(Cc2ccc3nc(C4CCOCC4)ccc3c2)C[C@H]1Oc1ccc2c(c1)CN(C1CCC(=O)NC1=O)C2=O (stereo partly drawn) [3-(5-{[(3S,4R)-4-methyl-1-{[2-(oxan-4-yl)quinolin-6-yl]methyl}pyrrolidin-3-yl]oxy}-1-oxo-2,3-dihydro-1H-isoindol-2-yl)piperidine-2,6-dione] | 27.68 | 2.71 | 3.52 | 9.683 |  | 
11 | COC[C@@H]1CN(Cc2ccc3nc(C4CCOCC4)ccc3c2)C[C@H]1Oc1ccc2c(c1)CN(C1CCC(=O)NC1=O)C2=O (stereo partly drawn) [3-(5-{[(3S,4S)-4-(methoxymethyl)-1-{[2-(oxan-4-yl)quinolin-6-yl]methyl}pyrrolidin-3-yl]oxy}-1-oxo-2,3-dihydro-1H-isoindol-2-yl)piperidine-2,6-dione] |  | 3.08 |  | 9.504 | 29.16 | 1.89
12 | Cc1ccc2cc(CN3C[C@H](C)[C@H](Oc4ccc5c(c4)CN(C4CCC(=O)NC4=O)C5=O)C3)ccc2n1 (stereo partly drawn) [3-(5-{[(3S,4S)-4-methyl-1-[(2-methylquinolin-6-yl)methyl]pyrrolidin-3-yl]oxy}-1-oxo-2,3-dihydro-1H-isoindol-2-yl)piperidine-2,6-dione] | 88.5 |  | > 10000 | 85.96 |  | 
13 | Cc1ccc2cc(CN3C[C@@H](Oc4ccc5c(c4)CN(C4CCC(=O)NC4=O)C5=O)C[C@H]3C)ccc2n1 (stereo partly drawn) [3-(5-{[(3S,5R)-5-methyl-1-[(2-methylquinolin-6-yl)methyl]pyrrolidin-3-yl]oxy}-1-oxo-2,3-dihydro-1H-isoindol-2-yl)piperidine-2,6-dione] | 88.5 |  | > 10000 | 80.29 |  | 
14 | Cc1ccc2cc(CN3C[C@@H](Oc4ccc5c(c4)CN(C4CCC(=O)NC4=O)C5=O)C[C@@H]3C)ccc2n1 (stereo partly drawn) [3-(5-{[(3S,5S)-5-methyl-1-[(2-methylquinolin-6-yl)methyl]pyrrolidin-3-yl]oxy}-1-oxo-2,3-dihydro-1H-isoindol-2-yl)piperidine-2,6-dione] | 64.5 | 83.9 | > 10000 | 82.25 |  | 
15 | O=C1CCC(N2Cc3cc(O[C@H]4CCN(Cc5cc6cc(F)ccc6cn5)C4)c(F)cc3C2=O)C(=O)N1 (stereo partly drawn) [3-(6-fluoro-5-{[(3S)-1-[(6-fluoroisoquinolin-3-yl)methyl]pyrrolidin-3-yl]oxy}-1-oxo-2,3-dihydro-1H-isoindol-2-yl)piperidine-2,6-dione] | 36 | 14.3 | 104 | 11.55 |  | 
16 | O=C1CCC(N2Cc3cc(O[C@H]4CCN(Cc5cc6ccccc6cn5)C4)c(F)cc3C2=O)C(=O)N1 (stereo partly drawn) [3-(6-fluoro-5-{[(3S)-1-[(isoquinolin-3-yl)methyl]pyrrolidin-3-yl]oxy}-1-oxo-2,3-dihydro-1H-isoindol-2-yl)piperidine-2,6-dione] | 34 | 10.6 | 53.7 | 7.57 |  | 
17 | O=C1CCC(N2Cc3cc(O[C@H]4CCN(Cc5ccc6nc(C7CCOCC7)ccc6c5)C4)c(F)cc3C2=O)C(=O)N1 (stereo partly drawn) [3-(6-fluoro-5-{[(3S)-1-{[2-(oxan-4-yl)quinolin-6-yl]methyl}pyrrolidin-3-yl]oxy}-1-oxo-2,3-dihydro-1H-isoindol-2-yl)piperidine-2,6-dione] |  | 3 |  | 15.44 | 30.27 | 7.69
18 | Cc1nc2ccccc2cc1CN1CC[C@H](Oc2ccc3c(c2)C(=O)N(C2CCC(=O)NC2=O)C3)C1 (stereo partly drawn) [3-(6-{[(3S)-1-[(2-methylquinolin-3-yl)methyl]pyrrolidin-3-yl]oxy}-1-oxo-2,3-dihydro-1H-isoindol-2-yl)piperidine-2,6-dione] | 87.055 |  |  | 79.9 |  | 
19 | O=C1CCC(N2Cc3ccc(O[C@H]4CCN(Cc5cc6ccccc6cn5)C4)cc3C2=O)C(=O)N1 (stereo partly drawn) [3-(6-{[(3S)-1-[(isoquinolin-3-yl)methyl]pyrrolidin-3-yl]oxy}-1-oxo-2,3-dihydro-1H-isoindol-2-yl)piperidine-2,6-dione] | 93.8 |  | 0.399 | 82.45 |  | 
20 | Cc1ccc2cc(CN3CC[C@H](Oc4ccc5c(c4)CN(C4(C)CCC(=O)NC4=O)C5=O)C3)ccc2n1 (stereo partly drawn) [3-methyl-3-(5-{[(3S)-1-[(2-methylquinolin-6-yl)methyl]pyrrolidin-3-yl]oxy}-1-oxo-2,3-dihydro-1H-isoindol-2-yl)piperidine-2,6-dione] | 69.05 | 5070 | > 10000 | 83.56 |  | 
